Tests used:
Btk = Btk (Homo sapiens (Human), UniProt Q06187); assay: Inhibition of cellular Btk activity: Btk-dependent FcG receptor-induced IL-8 secretion in differentiated THP1 cells; format: cell-based; conditions: IgG-stimulated IL-8 secretion, 24 hours
Protocol: Alternatively, the present compounds might also be assessed for their capacity to inhibit Btk-dependent FcG receptor-induced IL-8 secretion in human cells. The human myeloid leukemia THP1 cell line (ATCC TIB202) was grown in RPMI 1640 medium supplemented with 10% FCS and 15 nM 1, 25-dihydroxy Vitamin D3 during 4 days before use to induced myeloid differentiation. A sufficient number of tissue-culture grade 384-well plates was coated with human IgG of unknown specificity by incubating overnight at 4° C. with 40 μl/well of a 50 μg/ml IgG solution in PBS. On the day of the experiment, plates were washed 5 times with 80 μl water on a Molecular Devices Aquamax DW4 plate washer. Solutions of the test compounds in 90% DMSO were added to each well on a Hamilton Microlab Star liquid handling station to 40 μl/well tissue culture medium and the total DMSO concentration was adjusted to 0.1%. Differentiated THP1 cells were then added in 40 μl/well to reach a final density of 5'000 cells/well in 80 μl culture medium. After 24 hours, IL-8 secretion was measured in the supernatant by the IL-8 HTRF assay following the protocol of the vendor (CisBio international). Inhibition data were calculated by comparison to control cultures without IgG stimulus enzyme (100% inhibition) and without inhibitors (0% inhibition). The concentration of inhibitor required for 50% inhibition (IC50) was calculated from the inhibition in response to inhibitor concentrations.

[1] = biological target: full-length human recombinant BTK (Homo sapiens (Human), UniProt Q06187); assay: Inhibition of Btk enzymatic activity (biochemical enzyme assay, Caliper); conditions: 30° C., 60 minutes
Summary of the method: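 Reaction of 6.4 nM BTK (stock) with 4 μM FITC-peptide and 164 μM ATP (stock solution), 60 min at 30 °C in pH 7.5 HEPES with Mg2+/Mn2+. Phospho-peptide separated and quantified by microfluidic mobility shift after EDTA stop; IC50 from 8-point concentration–response.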

Btk, sequence (Q06187 whole entry): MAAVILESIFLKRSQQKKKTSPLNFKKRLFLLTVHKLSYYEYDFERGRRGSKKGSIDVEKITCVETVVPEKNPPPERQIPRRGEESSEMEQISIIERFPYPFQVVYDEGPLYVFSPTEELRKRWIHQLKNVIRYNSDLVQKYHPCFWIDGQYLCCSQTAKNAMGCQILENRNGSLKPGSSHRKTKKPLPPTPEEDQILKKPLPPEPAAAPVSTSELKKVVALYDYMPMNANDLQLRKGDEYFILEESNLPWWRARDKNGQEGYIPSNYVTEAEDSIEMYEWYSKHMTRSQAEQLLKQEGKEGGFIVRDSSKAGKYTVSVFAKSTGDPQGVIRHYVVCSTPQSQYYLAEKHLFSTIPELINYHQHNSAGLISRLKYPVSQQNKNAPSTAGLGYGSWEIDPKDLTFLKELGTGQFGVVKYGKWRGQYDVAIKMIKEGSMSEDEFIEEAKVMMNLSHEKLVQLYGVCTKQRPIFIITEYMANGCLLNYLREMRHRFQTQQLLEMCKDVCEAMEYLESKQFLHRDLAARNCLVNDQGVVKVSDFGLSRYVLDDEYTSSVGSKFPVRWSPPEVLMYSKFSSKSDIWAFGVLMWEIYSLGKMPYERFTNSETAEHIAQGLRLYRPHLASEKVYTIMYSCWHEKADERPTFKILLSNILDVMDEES
full-length human recombinant BTK, sequence (Q06187 whole entry): as above

Structure (SMILES) | IC50 (Btk) [µM] | IC50 [1] [µM]
CN(C)C(=O)N1CC=C(c2cc3c(-c4ccc(F)c(NC(=O)N5CC(OC(C)(C)C)C5)c4)ncnc3[nH]2)CC1 [Example 62, 4-(4-{3-[(3-tert-Butoxy-azetidine-1-carbonyl)-amino]-4-fluoro-phenyl}-7H-pyrrolo[2,3-d]pyrimidin-6-yl)-3,6-dihydro-2H-pyridine-1-carboxylic acid dimethylamide] | 0.071 | 0.002
Cc1c(NC(=O)c2cc3c(s2)CCC(C)C3)cc(F)cc1-c1ncnc2[nH]c(C3=CCN(C(=O)N(C)C)CC3)cc12 (stereo not shown) [Example 3, 4-(4-{5-Fluoro-2-methyl-3-[(5-methyl-4,5,6,7-tetrahydro-benzo[b]thiophene-2-carbonyl)-amino]-phenyl}-7H-pyrrolo[2′3-d]pyrimidin-6-yl)-3,6-dihydro-2H-pyridine-1-carboxylic acid dimethylamide] | 0.027 | 0.005

Reference: patent US9233111B2, “Pyrrolo pyrimidine derivatives” (NOVARTIS AG, priority 2011, dated 2016)
